{
  "source": "patent US20230233453A1",
  "about": "“SUXAMETHONIUM COMPOSITION AND PREFILLED SYRINGE THEREOF” (LABORATOIRE AGUETTANT, priority 2020, published 2023)",
  "key": {"[1]": {"assay": "Sensitivity of suxamethonium to oxidizing conditions", "assay_type": "physicochemical"}, "[2]": {"assay": "Degradation of suxamethonium depending on pH", "assay_type": "physicochemical", "conditions": "pH 5.0 vs pH 3.5"}},
  "data": [
    {"smiles": "C[N+](C)(C)CCOC(=O)CCC(=O)OCC[N+](C)(C)C", "note": "[suxamethonium]", "values": [
      {"measurement": "sensitivity to oxidizing conditions", "setting": "[1]", "result": "not sensitive to oxidizing conditions"},
      {"measurement": "degradation depending on pH", "setting": "[2]", "result": "faster at pH 5.0 than at pH 3.5"}
    ]}
  ]
}
